Data taken from US12435066B2, “Substituted tricyclic compounds” (LUPIN LIMITED, priority 2019, dated 2025).

What was measured:
hSOS1 and hKRASG12C = molecular target: T1, hSOS1 and hKRASG12C (Homo sapiens, UniProt Q07889); test: biochemical
T1 sequence (Q07889 564-1049): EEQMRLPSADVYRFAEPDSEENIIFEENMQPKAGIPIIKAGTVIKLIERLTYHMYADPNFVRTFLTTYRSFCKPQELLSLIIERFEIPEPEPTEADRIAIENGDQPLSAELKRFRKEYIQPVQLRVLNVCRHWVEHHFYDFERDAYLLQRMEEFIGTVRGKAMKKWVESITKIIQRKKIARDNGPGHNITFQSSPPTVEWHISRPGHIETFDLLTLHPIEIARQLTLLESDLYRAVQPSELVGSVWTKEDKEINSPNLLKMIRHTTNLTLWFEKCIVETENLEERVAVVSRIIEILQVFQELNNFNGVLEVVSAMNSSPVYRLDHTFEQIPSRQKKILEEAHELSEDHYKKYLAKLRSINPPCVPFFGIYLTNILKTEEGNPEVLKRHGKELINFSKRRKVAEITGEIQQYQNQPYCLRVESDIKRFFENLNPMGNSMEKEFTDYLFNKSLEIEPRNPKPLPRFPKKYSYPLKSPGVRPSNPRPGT

pERK in DLD1 cells = test: ERK phosphorylation assay after EGF stimulation; format: cell-based; conditions: Homo sapiens, DLD-1, compound 2 h, 200 ng/ml hEGF 5 minutes, alphascreen pERK, read-out: ERK phosphorylation inhibition IC50
Protocol: Example-128: ERK Phosphorylation Assay Protocol
Compounds were tested for their ability to inhibit pERK after EGF stimulation in DLD1 cells. Cells were seeded at 0.2 million cells per well in 96 well cell binding tissue culture plate in 100 μL complete media and were allowed to settle overnight (16 to 20 h). On the following day, cells were treated with various concentrations of test compounds for 2 h followed by stimulation with 200 ng/ml hEGF (diluted in PBS) for 5 minutes. Cells were then washed once with PBS and lysed in freshly prepared lysis buffer (provided with alphascreen surefire ERK1/2 p-T202/Y204 assay kit, cat no: TGRESB10K, Perkin Elmer). Lysis was carried out in plate shaker for 10-15 mins. Lysate was transferred to […] white opti-plate (Perkin Elmer) and alphascreen for pERK was carried out as per manufacturer's instructions. Plate was read after 2 h incubation in plate shaker at […] 300 RPM, 25-28° C.

[1] = molecular target: T2, hSOS1 mediated nucleotide exchange on hKRASG12C (Homo sapiens, UniProt Q07889); test: biochemical
T2 sequence (Q07889 564-1049): T1 sequence (Q07889 564-1049)
Protocol: Example-127: Guanine Nucleotide Exchange Assay (GNEA)
GNEA assay was conducted to evaluate the effects of compounds on the nucleotide exchange on hKRASG12C mediated by hSOS1. Inhibitory effect of compounds on HIS-hSOS1, 564-1049aa mediated GTP loading onto GST-hKRASG12C, 1-169aa both expressed and purified in-house was assessed using HTRF detection technology in biochemical assay. Compounds were pre-incubated with hSOS1 working solution containing 10-50 nM hSOS1 and 200 nM EDA-GTP-DY-647P1 (Custom manufactured, Jena Biosciences) per well of a 384 well plate (Perkin Elmer, Cat #6007290) for 10 min at 20° C. in the assay buffer containing 10 mM HEPES, pH 7.4, 150 mM NaCl, 5 mM MgCl2, 1 mM DTT, 0.05% BSA fraction V and 0.0025% Igepal. Reaction was initiated by adding working solution of hKRASG12C containing 25-125 nM hKRASG12C and MAb Anti-GST-Tb (#61GSTTLA, Cisbio BioAssays) in assay buffer. Total assay volume was 15 μL. Reaction was continued for 30-60 min at 20° C. HTRF signal was recorded in PHERAStar microplate reader. Ratio of signal obtained at 665 nm and 620 nm was used to compute the percent inhibition of compound as follows.
Where, Positive control=hSOS1+EDA-GTP-DY-647P1+hKRASG12C+MAb Anti-GST-Tb Negative control=EDA-GTP-DY-647P1+hKRASG12C+MAb Anti-GST-Tb

| Compound | IC50 (hSOS1 and hKRASG12C) | IC50 (pERK in DLD1 cells) | IC50 [1] |
| --- | --- | --- | --- |
| Cc1nc(N[C@H](C)c2cccc(C(F)(F)C(C)(C)O)c2F)c2cc(N3CCC(C)(CO)CC3)c3c(c2n1)CCC3 [Compound 60, (R)-1,1-difluoro-1-(2-fluoro-3-(1-((6-(4-(hydroxymethyl)-4-methylpiperidin-1-yl)-2-methyl-8,9-dihydro-7H-cyclopenta[h]quinazolin-4-yl)amino)ethyl)phenyl)-2-methylpropan-2-ol] | 1 to 10 nM | 1 to 200 nM | 1 to 30 nM |
| COCC1(O)CCN(c2cc3c(N[C@H](C)c4cccc(C(F)(F)[C@@H](C)O)c4F)nc(C)nc3c3c2CCC3)CC1 (single isomer, unassigned) [Compound 72b] | 1 to 10 nM | 1 to 200 nM | 1 to 30 nM |
| Cc1nc(N[C@H](C)c2cccc(C(F)(F)C(C)(C)O)c2F)c2cc(N3C[C@@H]4[C@@H](CO)[C@@H]4C3)c3c(c2n1)CCC3 [Compound 58, 1,1-difluoro-1-(2-fluoro-3-((R)-1-((6-((1R,5S,6R)-6-(hydroxymethyl)-3-azabicyclo[3.1.0]hexan-3-yl)-2-methyl-8,9-dihydro-7H-cyclopenta[h]quinazolin-4-yl)amino)ethyl)phenyl)-2-methylpropan-2-ol] | 1 to 10 nM | 1 to 200 nM | 1 to 30 nM |
| Cc1nc(N[C@H](C)c2cc(N)cc(C(F)(F)F)c2)c2cc(N3CCOCC3)c3c(c2n1)CCC3 [Compound 2, (R)—N-(1-(3-amino-5-(trifluoromethyl)phenyl)ethyl)-2-methyl-6-morpholino-8,9-dihydro-7H-cyclopenta[h]quinazolin-4-amine] | 1 to 10 nM | 1 to 200 nM | 1 to 30 nM |
| Cc1nc(N[C@H](C)c2cccc(C(F)(F)C(C)(C)O)c2F)c2cc(C3(O)CCOCC3)c3c(c2n1)CCC3 [Compound 119, (R)-4-(4-((1-(3-(1,1-difluoro-2-hydroxy-2-methylpropyl)-2-fluorophenyl)ethyl)amino)-2-methyl-8,9-dihydro-7H-cyclopenta[h]quinazolin-6-yl)tetrahydro-2H-pyran-4-ol] | 11 to 20 nM | 1 to 200 nM | 31 to 70 nM |
| COCC1CCN(c2cc3c(N[C@H](C)c4cccc(C(F)(F)C(C)(C)O)c4F)nc(C)nc3c3c2CCC3)CC1 [Compound 57, (R)-1,1-difluoro-1-(2-fluoro-3-(1-((6-(4-(methoxymethyl)piperidin-1-yl)-2-methyl-8,9-dihydro-7H-cyclopenta[h]quinazolin-4-yl)amino)ethyl)phenyl)-2-methylpropan-2-ol] | 1 to 10 nM | 1 to 200 nM | 1 to 30 nM |
| COCC1(O)CCN(c2cc3c(N[C@H](C)c4cccc(C(F)(F)C(C)O)c4F)nc(C)nc3c3c2CCC3)CC1 (single isomer, unassigned) [Compound 72a] | 1 to 10 nM | 1 to 200 nM | 1 to 30 nM |
| Cc1nc(N[C@H](C)c2cccc(C(F)(F)C(C)(C)O)c2F)c2cc(N3CCOCC3)c3c(c2n1)CCC3 [Compound 59, (R)-1,1-difluoro-1-(2-fluoro-3-(1-((2-methyl-6-morpholino-8,9-dihydro-7H-cyclopenta[h]quinazolin-4-yl)amino)ethyl)phenyl)-2-methylpropan-2-ol] | 1 to 10 nM | 1 to 200 nM | 1 to 30 nM |
| COCC1(O)CCN(c2cc3c(N[C@H](C)c4cccc(C(F)(F)CCO)c4F)nc(C)nc3c3c2CCC3)CC1 [Compound 71, (R)-1-(4-((1-(3-(1,1-difluoro-3-hydroxypropyl)-2-fluorophenyl)ethyl)amino)-2-methyl-8,9-dihydro-7H-cyclopenta[h]quinazolin-6-yl)-4-(methoxymethyl) piperidin-4-ol] | 1 to 10 nM | 1 to 200 nM | 1 to 30 nM |
| Cc1nc(N[C@H](C)c2cccc(C(F)(F)C(C)O)c2F)c2cc(N3CC4(COC4)C3)c3c(c2n1)CCC3 (single isomer, unassigned) [Compound 73a] | 1 to 10 nM | 1 to 200 nM | 1 to 30 nM |
